Test results as given in patent publication US7906110B2, “Rapid preparation of stem cell matrices for use in tissue and organ treatment and repair” (University of Pittsburgh—of the Commonwealth System of …, priority 2001, dated 2011).

System: spontaneous contractile activity of MDSC/SIS preparations
Assay: Pharmacological evaluation on spontaneous contractile activity of MDSC/SIS
Type: cell-based
Conditions: for effect on spontaneous contractile activity in MDSC/SIS specimens: added to bath: carbachol 10 and 20 μM, KCI 7%, 1 M, EGTA 200 μM in Ca++-free Krebs
Experimental: Twenty five preparations of MDSC/SIS and twenty five control preparations of SIS only were incubated at 37° C. for 1, 4, or 8 weeks. The specimens were then mounted in a thermally controlled bath of 5 ml at 37° C. in Krebs solution (mmol/L: NaCl, 113; KCI, 4.7; CaCl2,1.25; MgSO4,1.2; NaHCO3, 25; KH2PO4, 1.2 and glucose, 11.5) with a mixture of 95% 02 and 5% C02. The frequency and amplitude of isometric contractions were measured with strain gauge transducers coupled with a TBM4 strain gauge amplifier and recorded on a computer using a data acquisition program (Windaq, DATAQ Instruments Inc. Akron, Ohio). After 60 minutes of equilibration, electrical field stimuli (10 Hz, 150 volt, 0.5 ms, 60 sec) were applied in the bath. Pharmacological evaluations were performed with succinylcholine (S-Chol), (4, 10 and 20 μM); carbachol (10 and 20 μM); KCI, (7%, 1 M); Ca^++-free Krebs solution with EGTA (200 μM); or distilled water, were each added to the bath sequentially at 30 minute intervals. The frequency, amplitude, and pattern of contraction of the specimens were compared among the different groups.

O=C(O)CN(CCOCCOCCN(CC(=O)O)CC(=O)O)CC(=O)O [EGTA]
effect on spontaneous contractile activity in MDSC/SIS specimens: blocked

[Cl-].[K+] [KCI]
effect on spontaneous contractile activity in MDSC/SIS specimens: did not alter

C[N+](C)(C)CCOC(N)=O [carbachol]
effect on spontaneous contractile activity in MDSC/SIS specimens: did not alter

C[N+](C)(C)CCOC(=O)CCC(=O)OCC[N+](C)(C)C [succinylcholine]
effect on frequency, amplitude or pattern of spontaneous activity (4 μM, any of the preparations): did not alter
frequency and amplitude of spontaneous contractile activity decreased (4-week MDSC/SIS, 10 μM): 2 of 5
frequency and amplitude of spontaneous contractile activity decreased (4-week MDSC/SIS, 20 μM): 5 of 5
spontaneous contractile activity blocked (4-week MDSC/SIS, 20 μM): 2 of 5
frequency and amplitude of spontaneous contractile activity decreased (8-week MDSC/SIS, 10 μM): 8 of 8
effect on frequency and amplitude of spontaneous contractile activity (8-week MDSC/SIS, 20 μM): decreased
spontaneous contractile activity blocked (8-week MDSC/SIS, 20 μM): 5 of 8
reversibility of suppressant effects (after washout of the drug): reversible
